From patent publication US20180092866A1, “SUBSTITUTED N-([1,1'-BIPHENYL]-3-YL)-[1,1'-BIPHENYL]-3-CARBOXAMIDE ANALOGS AS INHIBITORS FOR BETA-CATENIN/B-CELL LYMPHOMA 9 INTERACTIONS” (University of Utah Research Foundation, priority 2015, published 2018)
Counter-ions that a name gives are not always drawn.

Target: T1, β-catenin/BCL9 protein-protein interactions (Homo sapiens, UniProt P35222)
T1 construct: C-terminally His6-tagged wild-type or mutant β-catenin (residues 138-686) proteins; made in house; host or cells: E. coli BL21 DE3
T1 sequence (P35222 138-686): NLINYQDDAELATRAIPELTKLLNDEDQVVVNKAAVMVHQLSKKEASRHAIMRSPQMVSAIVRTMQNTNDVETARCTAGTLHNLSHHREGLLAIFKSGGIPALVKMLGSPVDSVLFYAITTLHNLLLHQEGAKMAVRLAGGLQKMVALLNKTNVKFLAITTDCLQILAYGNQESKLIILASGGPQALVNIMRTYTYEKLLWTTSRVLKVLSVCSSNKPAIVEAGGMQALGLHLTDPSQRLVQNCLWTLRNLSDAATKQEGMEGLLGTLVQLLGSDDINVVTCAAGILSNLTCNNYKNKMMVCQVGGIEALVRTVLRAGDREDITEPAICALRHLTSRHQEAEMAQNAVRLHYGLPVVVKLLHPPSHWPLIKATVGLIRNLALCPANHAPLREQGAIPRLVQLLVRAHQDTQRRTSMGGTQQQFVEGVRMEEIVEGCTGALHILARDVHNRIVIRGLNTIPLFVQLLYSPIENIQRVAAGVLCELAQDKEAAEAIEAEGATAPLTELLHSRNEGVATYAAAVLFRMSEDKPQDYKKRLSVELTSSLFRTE
Assay: AlphaScreen competitive inhibition assay, wild-type β-catenin/BCL9
Format: binding
Conditions: for relative inhibitory potency for β-catenin/BCL9 PPIs (in words): comparison with named compound; for Ki: wild-type β-catenin (residues 138-686)/biotinylated BCL9 26-mer, Ki derived from IC50, mean ± SD; for fold less potent than 17: relative to compound 17
Protocol: The purity of the wild-type and mutant β-catenin proteins was all greater than 95% as determined by the SDS-PAGE gel analysis. Both the wild-type and mutant β-catenin proteins are stable under the testing conditions. Native non-denaturing gel electrophoresis was performed to confirm the homogeneity of the purified proteins. Experiments were performed in white opaque 384-well plates from PerkinElmer, and the samples were read on a Synergy 2 plate reader (Biotek) with a sensitivity setting of 200 using AlphaScreen protocol with excitation at 680 nm and emission at 570 nm. All dilutions were made in 1×assay buffer containing 25 mM HEPES (pH=7.0), 100 mM NaCl, 0.01% Triton X-100, and 0.1% BSA. In the AlphaScreen competitive inhibition assay, 40 nM of C-terminally His6-tagged wild-type or mutant β-catenin (residues 138-686) proteins was incubated with 5 nM of N-terminal biotinylated human BCL9 26-mer (residues 350-375) for 30 min at 4° C., and then different concentrations of the tested inhibitors in the assay buffer were added to make a final volume of 20 μL. The mixture was incubated at 4° C. for 2 h. The donor and acceptor beads were added to a final concentration of 10 μg/mL in 25 μL of assay buffer. The mixture was incubated at 4° C. for 1 h. The IC50 value was determined by nonlinear least-square analysis of GraphPad Prism 5.0. […] The Ki values were derived from the IC50 values by a reported method (Nikolovska-Coleska et al. (2004) Anal. Biochem. […]: 261-273). Experiments were performed in triplicate and carried out in the presence of 1% DMSO.

Compound | Ki | further results
Cl.NCCCc1ccc(C(N)=O)cc1-c1ccc(F)cc1 [Compound 6, 3-(5-Carbamoyl-4′-fluoro-[1,1′-biphenyl]-2-yl) propan-1-aminium chloride] | – | fold more potent than 4 (AlphaScreen assay, relative to compound 4): 5 fold
Cl.NCc1ccc(C(N)=O)cc1-c1ccc(F)cc1 [Compound 7, (5-Carbamoyl-4′-fluoro-[1,1′-biphenyl]-2-yl)methanaminium chloride] | – | relative inhibitory potency for β-catenin/BCL9 PPIs (in words) (AlphaScreen assay): less potent than 6
NC(=O)c1ccc(CCCO)c(-c2ccc(F)cc2)c1 [Compound 8, 4′-Fluoro-6-(3-hydroxypropyl)-[1,1′-biphenyl]-3-carboxamide] | – | relative inhibitory potency for β-catenin/BCL9 PPIs (in words) (AlphaScreen assay): less potent than 6
Cl.NCCOc1ccc(C(=O)Nc2cccc(-c3ccc(F)cc3)c2)cc1-c1ccc(F)cc1 [Compound 9, 2-((4′-Fluoro-5-((4′-fluoro-[1,1′-biphenyl]-3-yl)carbamoyl)-[1,1′-biphenyl]-2-yl)oxy) ethanaminium chloride] | 33.6 ± 4.34 µM | relative inhibitory potency for β-catenin/BCL9 PPIs (in words) (AlphaScreen assay): higher potency than 14
NCCOc1ccc(C(=O)Nc2cccc(-c3ccc(F)c(F)c3)c2)cc1-c1ccc(F)cc1 [Compound 10, 2-((5-((3′,4′-Difluoro-[1,1′-biphenyl]-3-yl)carbamoyl)-4′-fluoro-[1,1′-biphenyl]-2-yl)oxy) ethanaminium chloride] | 27.7 ± 3.67 µM | –
NCCOc1ccc(C(=O)Nc2cccc(-c3ccc(Cl)c(F)c3)c2)cc1-c1ccc(F)cc1 [Compound 11, 2-((5-((4′-Chloro-3′-fluoro-[1,1′-biphenyl]-3-yl)carbamoyl)-4′-fluoro-[1,1′-biphenyl]-2-yl)oxy) ethanaminium chloride] | 87.1 ± 4.95 µM | –
NCCOc1ccc(C(=O)Nc2cccc(-c3ccc(Cl)cc3F)c2)cc1-c1ccc(F)cc1 [Compound 12, 2-((5-((4′-Chloro-2′-fluoro-[1,1′-biphenyl]-3-yl)carbamoyl)-4′-fluoro-[1,1′-biphenyl]-2-yl)oxy) ethanaminium chloride] | 149 ± 5.69 µM | –
Cl.NCCOc1ccc(C(=O)Nc2cccc(-c3ccc(F)cc3)c2)cc1-c1ccc(F)c(F)c1 [Compound 13, 2-((3′,4′-Difluoro-5-((4′-fluoro-[1,1′-biphenyl]-3-yl)carbamoyl)-[1,1′-biphenyl]-2-yl)oxy) ethanaminium chloride] | 29.3 ± 3.85 µM | relative inhibitory potency for β-catenin/BCL9 PPIs (in words) (AlphaScreen assay): higher potency than 14
NCCOc1ccc(C(=O)Nc2cccc(-c3ccc(F)cc3)c2)cc1-c1ccc(Cl)c(F)c1 [Compound 14, 2-((4′-Chloro-3′-fluoro-5-((4′-fluoro-[1,1′-biphenyl]-3-yl)carbamoyl)-[1,1′-biphenyl]-2-yl)oxy) ethanaminium chloride] | 74 ± 3.48 µM | –
NCCOc1ccc(C(=O)Nc2cccc(-c3ccc(F)cc3)c2)cc1-c1ccsc1 [Compound 15, 2-(4-((4′-Fluoro-[1,1′-biphenyl]-3-yl)carbamoyl)-2-(thiophen-3-yl)phenoxy) ethanaminium chloride] | 32.4 ± 4.24 µM | –
Cl.Cl.NCCOc1ccc(NC(=O)c2ccc(OCCN)c(-c3ccc(F)c(F)c3)c2)cc1-c1ccc(F)cc1 [Compound 17, 2-((5-(6-(2-Ammonioethoxy)-3′,4′-difluoro-[1,1′-biphenyl]-3-ylcarboxamido)-4′-fluoro-[1,1′-biphenyl]-2-yl)oxy) ethanaminium chloride] | 6.12 ± 1.53 µM | relative inhibitory potency for β-catenin/BCL9 PPIs (in words) (AlphaScreen assay): more potent than 9 and 13
O=C(Nc1ccc(OCCO)c(-c2ccc(F)cc2)c1)c1ccc(OCCO)c(-c2ccc(F)c(F)c2)c1 [Compound 18, 3′,4′-Difluoro-N-(4′-fluoro-6-(2-hydroxyethoxy)-[1,1′-biphenyl]-3-yl)-6-(2-hydroxyethoxy)-[1,1′-biphenyl]-3-carboxamide] | 36.8 ± 2.72 µM | fold less potent than 17 (AlphaScreen assay): 6 fold
Cc1ccc(NC(=O)c2ccc(C)c(-c3ccc(F)c(F)c3)c2)cc1-c1ccc(F)cc1 [Compound 19, 3′,4′-Difluoro-N-(4′-fluoro-6-methyl-[1,1′-biphenyl]-3-yl)-6-methyl-[1,1′-biphenyl]-3-carboxamide] | – | fold less potent than 17 (AlphaScreen assay): 65 fold
O=C(Nc1ccc(OC2CNC2)c(-c2ccc(F)cc2)c1)c1ccc(OC2CNC2)c(-c2ccc(F)c(F)c2)c1 [Compound 22, 3-((5-(6-(azetidin-1-ium-3-yloxy)-3′,4′-difluoro-[1,1′-biphenyl]-3-ylcarboxamido)-4′-fluoro-[1,1′-biphenyl]-2-yl)oxy)azetidin-1-ium chloride] | 17 ± 1.99 µM | –
Cc1cc(C(=O)Nc2ccc(O[C@H]3CCNC3)c(-c3ccc(F)cc3)c2)ccc1O[C@H]1CCNC1 [Compound 24, (S)-3-((4′-fluoro-5-(3-methyl-4-((S)-pyrrolidin-1-ium-3-yloxy)benzamido)-[1,1′-biphenyl]-2-yl)oxy) pyrrolidin-1-ium chloride] | 201 ± 9.29 µM | –
O=C(Nc1ccc(O[C@H]2CCNC2)c(-c2ccc(F)cc2)c1)c1ccc(O[C@H]2CCNC2)c(-c2ccc3ccccc3c2)c1 [Compound 25, (S)-3-((4′-fluoro-5-(3-(naphthalen-2-yl)-4-((S)-pyrrolidin-1-ium-3-yloxy)benzamido)-[1,1′-biphenyl]-2-yl)oxy) pyrrolidin-1-ium chloride] | 8.45 ± 2.65 µM | –
O=C(Nc1ccc(O[C@@H]2CCNC2)c(-c2ccc(F)cc2)c1)c1ccc(O[C@@H]2CCNC2)c(-c2ccc(F)c(F)c2)c1 [Compound 26, (R)-3-((3′,4′-difluoro-5-((4′-fluoro-6-(((R)-pyrrolidin-1-ium-3-yl)oxy)-[1,1′-biphenyl]-3-yl)carbamoyl)-[1,1′-biphenyl]-2-yl)oxy) pyrrolidin-1-ium chloride] | 4.08 ± 0.355 µM | –
O=C(Nc1ccc(O[C@H]2CCNC2)c(-c2ccc(F)cc2)c1)c1ccc(O[C@@H]2CCNC2)c(-c2ccc(F)c(F)c2)c1 [Compound 27, (R)-3-((3′,4′-difluoro-5-((4′-fluoro-6-(((S)-pyrrolidin-1-ium-3-yl)oxy)-[1,1′-biphenyl]-3-yl)carbamoyl)-[1,1′-biphenyl]-2-yl)oxy) pyrrolidin-1-ium chloride] | 5.6 ± 0.514 µM | –
O=C(Nc1ccc(O[C@@H]2CCNC2)c(-c2ccc(F)cc2)c1)c1ccc(O[C@H]2CCNC2)c(-c2ccc(F)c(F)c2)c1 [Compound 28, (S)-3-((3′,4′-difluoro-5-((4′-fluoro-6-(((R)-pyrrolidin-1-ium-3-yl)oxy)-[1,1′-biphenyl]-3-yl)carbamoyl)-[1,1′-biphenyl]-2-yl)oxy) pyrrolidin-1-ium chloride] | 3.41 ± 0.354 µM | –
COC(=O)c1ccc(OCCNC(=O)OC(C)(C)C)c(Br)c1 [Compound 30, Methyl-3-bromo-4-(2-((tert-butoxycarbonyl)amino)ethoxy) benzoate] | 156 ± 3.96 µM | –
COC(=O)c1ccc(OCCNC(=O)OC(C)(C)C)c(-c2ccc(F)cc2)c1 [Compound 31, Methyl-6-(2-((tert-butoxycarbonyl)amino)ethoxy)-4′-fluoro-[1,1′-biphenyl]-3-carboxylate] | 180 ± 4.84 µM | –
O=C(Nc1cnc(O[C@H]2CCNC2)c(-c2ccc(F)cc2)c1)c1ccc(O[C@H]2CCNC2)c(-c2ccc(F)c(F)c2)c1 [Compound 84a, 3′,4′-Difluoro-N-(5-(4-fluorophenyl)-6-((S)-pyrrolidin-3-yloxy)pyridin-3-yl)-6-((S)-pyrrolidin-3-yloxy)-[1,1′-biphenyl]-3-carboxamide dihydrochloride] | 78.6 ± 10.4 µM | –
O=C(Nc1ccc(O[C@H]2CCNC2)c(-c2ccc(F)cc2)c1)c1cnc(O[C@H]2CCNC2)c(-c2ccc(F)c(F)c2)c1 [Compound 84b, 5-(3,4-difluorophenyl)-N-(4′-fluoro-6-((S)-pyrrolidin-3-yloxy)-[1,1′-biphenyl]-3-yl)-6-((S)-pyrrolidin-3-yloxy)nicomide dihydrochloride] | 84.2 ± 14.8 µM | –
O=C(Nc1cnc(O[C@H]2CCNC2)c(-c2ccc(F)cc2)c1)c1cnc(O[C@H]2CCNC2)c(-c2ccc(F)c(F)c2)c1 [Compound 84c, 5-(3,4-difluorophenyl)-N-(5-(4-fluorophenyl)-6-((S)-pyrrolidin-3-yloxy)pyridin-3-yl)-6-((S)-pyrrolidin-3-yloxy)nicotinamide dihydrochloride] | 68.6 ± 14.9 µM | –
